Source: ChEMBL document CHEMBL1201862, “PubChem BioAssay data set” (2004)
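Following 48 hours of exposure in 96-well plates, responses at five concentrations were used to interpolate endpoints linearly. GI50 marks 50% less growth.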 Activity calls are given as the source filed them. Cut-off read from the data, not from the text of the source: active = GI50 up to about 1.1 µM and inactive = higher.

Experiments:
Assay in all cases: inhibition of tumour cell growth, NCI panel, 48 h
[1] = system: COLO 205
[2] = system: DU-145
[3] = system: HL-60
[4] = system: HOP-92
[5] = system: HT-29
[6] = system: Hs-578T
[7] = system: IGROV-1
[8] = system: K562
[9] = system: LOX IMVI
[10] = system: M14
[11] = system: NCI-H23
[12] = system: NCI/ADR-RES
[13] = system: OVCAR-3
[14] = system: OVCAR-5
[15] = system: PC-3
[16] = system: SF-268
[17] = system: SK-MEL-28
[18] = system: SK-MEL-5
[19] = system: SK-OV-3
[20] = system: UACC-257

SMILES | GI50 [1] | GI50 [2] | GI50 [3] | GI50 [4] | GI50 [5] | GI50 [6] | GI50 [7] | GI50 [8] | GI50 [9] | GI50 [10] | GI50 [11] | GI50 [12] | GI50 [13] | GI50 [14] | GI50 [15] | GI50 [16] | GI50 [17] | GI50 [18] | GI50 [19] | GI50 [20]
CC(CCC#N)(CCC#N)C(=O)CC(O)(C(F)(F)F)C(F)(F)F | 2.28 µM (inactive) | 11.4 µM (inactive) | 0.817 µM (active) | 4.86 µM (inactive) | 6.65 µM (inactive) | 15.3 µM (inactive) | 13.2 µM (inactive) | 1.36 µM (inactive) | 2.07 µM (inactive) | 2.1 µM (inactive) | 5.43 µM (inactive) | 5.94 µM (inactive) | 2.76 µM (inactive) | 12.3 µM (inactive) | 11.9 µM (inactive) | 7.89 µM (inactive) | 11 µM (inactive) | 13.3 µM (inactive) | 47 µM (inactive) | 6.41 µM (inactive)
CCCC(=O)NC(Nc1ccc(S(=O)(=O)Nc2cc(C)on2)cc1)(C(=O)OCC)C(F)(F)F (stereo not given) | > 100 µM (inactive) | > 100 µM (inactive) | > 100 µM (inactive) | > 100 µM (inactive) | > 100 µM (inactive) | > 100 µM (inactive) | > 100 µM (inactive) | > 100 µM (inactive) | > 100 µM (inactive) | > 100 µM (inactive) | > 100 µM (inactive) | > 100 µM (inactive) | > 100 µM (inactive) | > 100 µM (inactive) | > 100 µM (inactive) | > 100 µM (inactive) | > 100 µM (inactive) | > 100 µM (inactive) | > 100 µM (inactive) | > 100 µM (inactive)
COC1CC(OC2CCC3(C)C(CCC45CCC(C6=CC(=O)OC6)C(C)(CCC43)C5=O)C2)OC(C)C1O (stereo not given) | 40.5 µM (inactive) | 15.9 µM (inactive) | 18.8 µM (inactive) | 81.5 µM (inactive) | 39.5 µM (inactive) | 28.2 µM (inactive) | 38.7 µM (inactive) | 59.8 µM (inactive) | 38.4 µM (inactive) | > 100 µM (inactive) | 22.5 µM (inactive) | 32.5 µM (inactive) | 27.7 µM (inactive) | 40.8 µM (inactive) | 39.3 µM (inactive) | 17.5 µM (inactive) | > 100 µM (inactive) | 18.1 µM (inactive) | 46.1 µM (inactive) | > 100 µM (inactive)
Cc1ccc2c(c1)C(=O)/C(=C\c1ccc(Cl)cc1)CCS2(=O)=O | 3.85 µM (inactive) | 2.66 µM (inactive) | 2.66 µM (inactive) | 3.53 µM (inactive) | 2.55 µM (inactive) | 3.1 µM (inactive) | 2.65 µM (inactive) | 1.42 µM (inactive) | 2.54 µM (inactive) | 4.05 µM (inactive) | 3.28 µM (inactive) | 2.18 µM (inactive) | 4.24 µM (inactive) | 12.4 µM (inactive) | 5.09 µM (inactive) | 3.12 µM (inactive) | 4.59 µM (inactive) | 3.22 µM (inactive) | 7.82 µM (inactive) | 2.65 µM (inactive)
CCOC(=O)C(=O)CC(=O)C1=C(c2ccccc2OC)CC(c2cccs2)=CC1=O | 39.7 µM (inactive) | > 100 µM (inactive) | 55 µM (inactive) | 71.1 µM (inactive) | 50.2 µM (inactive) | 2.75 µM (inactive) | 15.3 µM (inactive) | 23.4 µM (inactive) | 83.9 µM (inactive) | 26.1 µM (inactive) | > 100 µM (inactive) | 46 µM (inactive) | 41.9 µM (inactive) | > 100 µM (inactive) | 24 µM (inactive) | > 100 µM (inactive) | > 100 µM (inactive) | 44.1 µM (inactive) | 29.7 µM (inactive) | > 100 µM (inactive)
O=N/N=c1\o[n-][n+](CCc2ccccc2)c1Cc1/c(=N/N=O)o[n-][n+]1CCc1ccccc1 | > 100 µM (inactive) | 55.5 µM (inactive) | 30.8 µM (inactive) | 27.1 µM (inactive) | 76 µM (inactive) | 28.7 µM (inactive) | 25.1 µM (inactive) | 25.2 µM (inactive) | 91.4 µM (inactive) | 89.5 µM (inactive) | 28.4 µM (inactive) | > 100 µM (inactive) | 18.7 µM (inactive) | > 100 µM (inactive) | 33.8 µM (inactive) | 32 µM (inactive) | 55.6 µM (inactive) | 31.2 µM (inactive) | 34.4 µM (inactive) | > 100 µM (inactive)
